{"source": "ChEMBL document CHEMBL1201862", "about": "“PubChem BioAssay data set” (2004)", "key": {"[1]": {"assay": "inhibitors of Trypanosoma cruzi host-cell infection, confirmation, beta-gal luminescence, NIH3T3 host cells (AID 2630)", "assay_type": "functional, cell-based", "details": "Mus musculus"}, "[2]": {"assay": "Luminescence Cell-Based/Microorganism Confirmation at Dose of Inhibitors of Trypanosoma cruzi Infection. [Related pubchem assays: 1885, 1968 ]", "assay_type": "functional"}, "[3]": {"assay": "T. cruzi growth inhibition in host cells, dose response, cell-based, plate reader, dry powder, set 2 (AID 652275)", "assay_type": "functional"}, "[4]": {"assay": "Luminescence Cell-Based Secondary HTS screen to identify cytotoxic compounds of NIH3T3 cells. [Related pubchem assays: 1885, 1968 ]", "assay_type": "functional"}, "[5]": {"assay": "T. cruzi intracellular amastigote growth inhibition, dose response, imaging, CA-I/72 strain, bovine embryo skeletal muscle, dry powder (AID 651885)", "assay_type": "functional, cell-based"}, "[6]": {"assay": "inhibitors of intracellular T. cruzi replication, confirmation, NIH3T3 host cells, beta-gal luminescence (AID 2044);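 note: luminescent beta-galactosidase reporter signal from transgenic T. cruzi replicating inside host cells; inhibitors lower the luminescence signal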", "assay_type": "functional, cell-based"}, "[7]": {"assay": "cytotoxicity toward NIH3T3 fibroblasts, dose response, counter-screen, cell-based, ATP luminescence, mouse fibroblasts (AID 2010);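 note: cells exposed to compound for about 90 hours before reading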", "assay_type": "functional"}, "[8]": {"target": "T1, Mannose-6-phosphate isomerase (Homo sapiens, UniProt P34949)", "T1 sequence (P34949 whole entry)": "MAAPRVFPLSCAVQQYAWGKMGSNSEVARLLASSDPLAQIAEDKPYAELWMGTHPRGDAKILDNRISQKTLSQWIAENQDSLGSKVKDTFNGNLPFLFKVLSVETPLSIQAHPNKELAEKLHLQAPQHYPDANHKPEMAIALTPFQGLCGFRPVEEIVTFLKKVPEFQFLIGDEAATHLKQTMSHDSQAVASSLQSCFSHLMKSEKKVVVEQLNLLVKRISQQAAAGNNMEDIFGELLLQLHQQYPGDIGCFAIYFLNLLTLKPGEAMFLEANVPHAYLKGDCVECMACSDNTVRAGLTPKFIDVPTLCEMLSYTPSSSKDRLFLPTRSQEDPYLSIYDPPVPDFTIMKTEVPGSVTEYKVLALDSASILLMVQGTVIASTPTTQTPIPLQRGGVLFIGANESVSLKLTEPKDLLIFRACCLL", "assay": "human PMI inhibitors, high substrate, primary screen, biochemical, fluorescence intensity, high mannose 6-phosphate (AID 1220)"}, "[9]": {"target": "T1, Mannose-6-phosphate isomerase", "assay": "inhibitors of human PMI, primary screen, biochemical, fluorescence intensity, coupled assay (AID 1209)"}, "Large T antigen": {"target": "Large T antigen (Simian virus 40, UniProt P03070)", "sequence (P03070 whole entry)": "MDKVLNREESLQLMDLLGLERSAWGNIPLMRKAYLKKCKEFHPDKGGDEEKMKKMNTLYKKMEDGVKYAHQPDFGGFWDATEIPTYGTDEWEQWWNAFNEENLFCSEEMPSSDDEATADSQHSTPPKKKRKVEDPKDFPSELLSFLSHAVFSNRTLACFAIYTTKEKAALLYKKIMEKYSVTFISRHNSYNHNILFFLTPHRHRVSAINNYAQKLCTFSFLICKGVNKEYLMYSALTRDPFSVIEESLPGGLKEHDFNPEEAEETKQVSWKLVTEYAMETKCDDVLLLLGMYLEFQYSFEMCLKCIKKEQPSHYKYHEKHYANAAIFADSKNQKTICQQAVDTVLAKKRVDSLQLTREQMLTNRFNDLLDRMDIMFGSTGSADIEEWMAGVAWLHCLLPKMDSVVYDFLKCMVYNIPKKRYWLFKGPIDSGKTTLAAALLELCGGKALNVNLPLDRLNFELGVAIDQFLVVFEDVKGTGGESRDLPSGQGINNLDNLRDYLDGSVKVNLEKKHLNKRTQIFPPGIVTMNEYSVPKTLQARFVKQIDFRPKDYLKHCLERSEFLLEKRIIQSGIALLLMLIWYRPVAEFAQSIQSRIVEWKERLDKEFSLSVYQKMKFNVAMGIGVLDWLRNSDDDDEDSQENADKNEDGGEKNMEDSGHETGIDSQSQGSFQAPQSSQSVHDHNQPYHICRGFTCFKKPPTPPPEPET", "assay_type": "functional, Betapolyomavirus macacae"}, "[10]": {"target": "FAD-linked sulfhydryl oxidase ALR (Homo sapiens, UniProt P55789)", "sequence (P55789 whole entry)": "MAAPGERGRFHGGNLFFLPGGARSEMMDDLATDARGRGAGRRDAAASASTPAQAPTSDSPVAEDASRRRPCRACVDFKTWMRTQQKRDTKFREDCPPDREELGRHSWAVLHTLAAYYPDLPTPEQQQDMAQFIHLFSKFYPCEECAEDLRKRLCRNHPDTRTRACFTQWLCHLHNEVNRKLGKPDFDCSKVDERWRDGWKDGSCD", "assay": "inhibitors of human ALR sulfhydryl oxidase, dose response, biochemical, H2O2 detection, luminescence, cherry-pick (AID 493248)"}, "[11]": {"assay": "Counterscreen for IDE inhibitors: Luminescence-based cell-based high throughput dose response assay to identify compounds that are cytotoxic to HEK cells. [Related pubchem assays: 434962 (Primary screen (IDE inhibitors in singlicate)), 449730 (Counterscreen (Cytotoxicity in triplicate)), 435028 (Confirmation (IDE inhibitors in triplicate)) …", "assay_type": "functional", "details": "HEK293"}, "Insulin-degrading enzyme": {"target": "T2, Insulin-degrading enzyme (Homo sapiens, UniProt P14735)", "T2 sequence (P14735 whole entry)": "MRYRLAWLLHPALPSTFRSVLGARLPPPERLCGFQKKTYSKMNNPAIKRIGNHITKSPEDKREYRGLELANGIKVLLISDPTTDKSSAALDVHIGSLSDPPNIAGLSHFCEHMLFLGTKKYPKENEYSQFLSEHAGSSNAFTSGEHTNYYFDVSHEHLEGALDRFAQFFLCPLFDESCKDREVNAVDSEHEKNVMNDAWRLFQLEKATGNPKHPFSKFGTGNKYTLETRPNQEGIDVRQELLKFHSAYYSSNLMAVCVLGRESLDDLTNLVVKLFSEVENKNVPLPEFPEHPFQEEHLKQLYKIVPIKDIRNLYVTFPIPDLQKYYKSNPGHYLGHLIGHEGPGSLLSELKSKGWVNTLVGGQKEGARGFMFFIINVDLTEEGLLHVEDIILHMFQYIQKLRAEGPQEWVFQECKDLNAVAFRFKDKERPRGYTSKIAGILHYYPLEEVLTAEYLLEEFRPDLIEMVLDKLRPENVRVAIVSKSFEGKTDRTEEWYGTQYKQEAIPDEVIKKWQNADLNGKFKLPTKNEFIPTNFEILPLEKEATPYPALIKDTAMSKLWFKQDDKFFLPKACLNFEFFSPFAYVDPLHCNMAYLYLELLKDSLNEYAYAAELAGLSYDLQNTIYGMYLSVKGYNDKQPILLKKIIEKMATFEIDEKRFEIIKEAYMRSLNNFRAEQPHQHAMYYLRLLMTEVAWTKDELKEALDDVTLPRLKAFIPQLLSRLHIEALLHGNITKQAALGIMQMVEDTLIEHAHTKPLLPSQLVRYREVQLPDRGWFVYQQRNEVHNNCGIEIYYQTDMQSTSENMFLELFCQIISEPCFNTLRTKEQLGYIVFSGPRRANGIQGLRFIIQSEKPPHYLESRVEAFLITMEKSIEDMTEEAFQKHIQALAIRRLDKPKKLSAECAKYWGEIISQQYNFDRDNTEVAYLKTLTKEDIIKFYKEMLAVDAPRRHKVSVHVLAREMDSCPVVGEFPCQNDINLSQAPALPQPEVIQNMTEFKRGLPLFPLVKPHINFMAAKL", "assay": "Dose Response: Fluorescence polarization-based cell-based high throughput dose response assay for inhibitors of insulin-degrading enzyme (IDE). [Related pubchem assays: 434962 (Primary screen (IDE inhibitors in singlicate)), 449730 (Counterscreen (Cytotoxicity in triplicate)), 435028 (Confirmation (IDE inhibitors in triplicate)), 434984 (Summary …", "assay_type": "functional"}, "[12]": {"target": "T3, Endoribonuclease toxin MazF (Escherichia coli K-12, UniProt P0AE70)", "T3 sequence (P0AE70 whole entry)": "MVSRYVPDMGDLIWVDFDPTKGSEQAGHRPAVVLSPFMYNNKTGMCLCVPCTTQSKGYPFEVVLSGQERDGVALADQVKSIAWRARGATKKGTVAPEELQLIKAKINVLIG", "assay": "MazF toxin RNase activators, dose response, biochemical, fluorescence, single-stranded RNA substrate, uHTS hits (AID 588481)", "assay_type": "functional"}, "[13]": {"target": "Induced myeloid leukemia cell differentiation protein Mcl-1 (Homo sapiens, UniProt Q07820)", "sequence (Q07820 whole entry)": "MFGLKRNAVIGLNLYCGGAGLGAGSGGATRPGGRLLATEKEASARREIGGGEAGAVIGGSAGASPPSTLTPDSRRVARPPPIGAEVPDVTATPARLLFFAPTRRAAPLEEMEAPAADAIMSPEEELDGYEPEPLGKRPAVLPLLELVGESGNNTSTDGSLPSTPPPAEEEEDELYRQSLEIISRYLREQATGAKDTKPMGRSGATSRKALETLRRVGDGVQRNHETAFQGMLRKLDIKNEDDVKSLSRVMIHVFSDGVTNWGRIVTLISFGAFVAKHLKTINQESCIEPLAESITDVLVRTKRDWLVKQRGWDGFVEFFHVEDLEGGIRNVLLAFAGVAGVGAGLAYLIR", "assay": "MCL1-BIM BH3 interaction inhibitors, dose response, biochemical, fluorescence polarization, BIM-BH3 peptide, 1536-well (AID 2217)"}, "Bcl-2-like protein 1": {"target": "Bcl-2-like protein 1 (Homo sapiens, UniProt Q07817)", "sequence (Q07817 whole entry)": "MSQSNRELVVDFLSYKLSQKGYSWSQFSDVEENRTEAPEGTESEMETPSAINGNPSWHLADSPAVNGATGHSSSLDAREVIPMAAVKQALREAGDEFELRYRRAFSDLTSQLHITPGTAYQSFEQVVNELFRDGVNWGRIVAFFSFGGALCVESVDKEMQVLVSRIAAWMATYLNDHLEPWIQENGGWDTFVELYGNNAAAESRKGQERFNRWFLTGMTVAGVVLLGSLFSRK", "assay": "BCL-XL inhibitors, dose response, selectivity assay for MCL1 inhibitor project, biochemical, fluorescence polarization, 1536-well (AID 2218)"}, "[14]": {"target": "T3, Endoribonuclease toxin MazF", "assay": "fluorescent RNA oligo signal without MazF, dose response, counter-screen for MazEF activator project, biochemical, fluorescence, single-stranded RNase substrate (AID 588502)", "assay_type": "functional"}, "Albumin": {"target": "Albumin (Bos taurus, UniProt P02769)", "sequence (P02769 whole entry)": "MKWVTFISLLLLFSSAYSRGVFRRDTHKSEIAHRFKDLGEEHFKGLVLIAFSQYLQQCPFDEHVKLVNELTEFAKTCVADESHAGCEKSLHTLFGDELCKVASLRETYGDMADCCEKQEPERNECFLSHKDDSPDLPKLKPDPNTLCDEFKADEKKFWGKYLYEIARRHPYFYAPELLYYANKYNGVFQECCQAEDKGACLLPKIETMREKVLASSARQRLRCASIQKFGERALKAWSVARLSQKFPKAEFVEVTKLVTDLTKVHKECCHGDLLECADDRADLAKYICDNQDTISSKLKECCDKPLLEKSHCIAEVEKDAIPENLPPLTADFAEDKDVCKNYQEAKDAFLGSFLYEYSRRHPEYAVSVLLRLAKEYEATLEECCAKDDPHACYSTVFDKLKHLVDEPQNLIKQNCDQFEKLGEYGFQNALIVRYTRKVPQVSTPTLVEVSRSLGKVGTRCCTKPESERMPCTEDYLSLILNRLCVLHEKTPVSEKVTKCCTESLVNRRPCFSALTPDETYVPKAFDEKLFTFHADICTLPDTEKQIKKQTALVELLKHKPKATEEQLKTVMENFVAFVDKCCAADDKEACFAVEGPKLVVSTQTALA", "assay": "Counterscreen for inhibitors of T-cell receptor (TCR)-CD3 interaction: Fluorescence-based biochemical high throughput dose response assay to identify inhibitors of T-cell receptor (TCR)-CD3 interaction using a TAMRA-labeled BSA probe.", "assay_type": "functional"}, "[15]": {"target": "T4, Heat shock 70 kDa protein 1A (Homo sapiens, UniProt P0DMV8)", "T4 sequence (P0DMV8 whole entry)": "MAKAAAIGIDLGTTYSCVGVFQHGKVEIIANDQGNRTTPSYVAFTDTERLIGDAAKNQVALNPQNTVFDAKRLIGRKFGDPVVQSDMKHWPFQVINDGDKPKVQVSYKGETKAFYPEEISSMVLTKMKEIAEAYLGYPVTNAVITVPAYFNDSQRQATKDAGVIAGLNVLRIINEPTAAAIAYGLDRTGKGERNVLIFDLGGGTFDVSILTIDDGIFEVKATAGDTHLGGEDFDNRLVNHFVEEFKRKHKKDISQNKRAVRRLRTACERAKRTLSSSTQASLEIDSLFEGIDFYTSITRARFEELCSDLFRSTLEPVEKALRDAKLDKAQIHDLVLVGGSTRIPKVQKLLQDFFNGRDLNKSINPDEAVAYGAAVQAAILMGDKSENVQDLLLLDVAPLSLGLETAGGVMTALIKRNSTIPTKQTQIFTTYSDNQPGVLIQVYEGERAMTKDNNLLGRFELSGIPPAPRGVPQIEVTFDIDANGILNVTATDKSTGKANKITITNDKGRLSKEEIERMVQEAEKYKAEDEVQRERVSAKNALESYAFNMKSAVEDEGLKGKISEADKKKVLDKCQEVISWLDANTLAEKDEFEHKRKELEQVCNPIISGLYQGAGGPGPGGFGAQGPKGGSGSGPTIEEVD", "assay": "Hsp70 inhibitors, probe displacement, primary screen, biochemical, fluorescence polarization (AID 583)"}, "[16]": {"target": "T4, Heat shock 70 kDa protein 1A", "assay": "Hsp70 inhibitors, biochemical, TR-FRET (AID 786)"}, "[17]": {"target": "Sphingosine 1-phosphate receptor 2 (Homo sapiens, UniProt O95136)", "sequence (O95136 whole entry)": "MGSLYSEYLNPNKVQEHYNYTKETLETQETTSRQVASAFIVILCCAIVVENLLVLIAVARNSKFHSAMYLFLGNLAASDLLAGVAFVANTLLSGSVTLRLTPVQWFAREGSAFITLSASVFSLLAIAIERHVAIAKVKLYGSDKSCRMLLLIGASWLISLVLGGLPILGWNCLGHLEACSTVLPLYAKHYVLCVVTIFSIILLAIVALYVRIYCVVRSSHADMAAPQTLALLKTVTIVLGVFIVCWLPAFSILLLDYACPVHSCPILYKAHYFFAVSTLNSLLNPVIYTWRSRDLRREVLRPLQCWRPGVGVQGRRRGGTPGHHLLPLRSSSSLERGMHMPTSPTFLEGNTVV", "assay": "Dose Response Cell Based Assay for Agonists of the S1P2 Receptor of Purchased Analogues. [Related pubchem assays: 729, 843, 854, 736 ]", "assay_type": "functional"}}, "note": "The source made the active and inactive calls.", "data": [{"smiles": "CCCn1ncc(CN2CCCC(C(=O)c3cccc(OC(C)C)c3)C2)c1C", "note": "(configuration not stated)", "values": [{"measurement": "EC50", "setting": "[1]", "result": "0.047 µM (active)"}, {"measurement": "EC50", "setting": "cells", "result": "0.054 µM (active)"}, {"measurement": "EC50", "setting": "[2]", "result": "0.047 µM (active)"}, {"measurement": "AC50", "setting": "[3]", "result": "0.0589 µM (active)"}, {"measurement": "EC50", "setting": "[4]", "result": "> 195 µM (not active)"}, {"measurement": "IC50", "setting": "[5]", "result": "> 20 µM (inactive)"}, {"measurement": "EC50", "setting": "[6]", "result": "< 0.1 µM (active)"}, {"measurement": "EC50", "setting": "[7]", "result": "> 60 µM (not active)"}]}, {"smiles": "CCn1c(=O)n(CC)c2cc(N)ccc21", "values": [{"measurement": "IC50", "setting": "[8]", "result": "> 50 µM (not active)"}, {"measurement": "IC50", "setting": "[9]", "result": "> 50 µM (not active)"}, {"measurement": "IC50", "setting": "Large T antigen", "result": "14 µM (active)"}, {"measurement": "AC50", "setting": "[10]", "result": "0.754 µM (active)"}]}, {"smiles": "CCCN1C(=O)/C(=C/c2ccc(N3CCOCC3)cc2)NC1=S", "values": [{"measurement": "IC50", "setting": "[11]", "result": "19 µM (not active)"}, {"measurement": "IC50", "setting": "Insulin-degrading enzyme", "result": "33.1 µM (not active)"}]}, {"smiles": "O=c1cc(-c2ccc(O)c(O)c2)oc2c1ccc1ccccc12", "values": [{"measurement": "EC50", "setting": "[12]", "result": "> 99 µM (inactive)"}, {"measurement": "IC50", "setting": "[13]", "result": "23.8 µM (not active)"}, {"measurement": "IC50", "setting": "Bcl-2-like protein 1", "result": "> 109 µM (not active)"}, {"measurement": "EC50", "setting": "[14]", "result": "> 99 µM (inactive)"}, {"measurement": "IC50", "setting": "Albumin", "result": "> 94.1 µM (inactive)"}]}, {"smiles": "Cc1cc(NC(=O)CSc2ncnc3ccccc23)no1", "values": [{"measurement": "IC50", "setting": "[15]", "result": "> 100 µM (not active)"}, {"measurement": "IC50", "setting": "[16]", "result": "> 100 µM (not active)"}]}, {"smiles": "Cc1cc(C(=O)CN(C)CC(=O)NC(C)(C)C)c(C)n1Cc1ccccc1", "values": [{"measurement": "EC50", "setting": "[17]", "result": "> 30 µM (not active)"}]}]}
